From patent EP0222155A1, “5-Fluorouracil derivatives” (TERUMO KABUSHIKI KAISHA trading as TERUMO CORPORATION, priority 1985, dated 1987)
Like-named read-outs stand apart in the source and are kept apart here.

Key:
P388 cells = assay: Antitumor activity: increase in life survival of mice transplanted i.p. with P388 cells; type: in vivo, CDF₁ mice; details: for ILS (%): intraperitoneally once a day for five days, P388 in CDF₁ mice
Method: CDF₁ mice (male, 5 weeks old) were intraperitoneally transplanted with P388 cells at a dose of 1 x 10⁶ cells/mouse.
From the next day of the transplantation, a test compound of the invention in the form of 0.5% carboxymethylcellulose suspension was intraperitoneally administered once a day for consecutive five days. Percent increase in life survival was determined: [formula]

platelet aggregation = assay: Platelet aggregation-inhibitory activity in platelet-rich plasma; type: cell-based, rabbit; details: Oryctolagus cuniculus
Method: From rabbit carotid […] was drawn blood (9 volumes) by means of a syringe containing 3.8% aqueous sodium citrate (1 volume). The blood was centrifuged to obtain platelet-rich plasma (PRP: 550,000/µl). Platelet aggregation-inhibitory activity of a compound of the invention was measure using as an aggregation-inducing agent arachidonic acid or collagen. 50%-inhibition concentration (IC₅₀) against the platelet aggregation caused by arachidonic acid (80 µM) and collagen (30 µg/ml) is shown in Table 2 for representative compounds according to the invention.

[1] = Acute toxicity test, oral administration; details: mouse, in vivo, ICR male mice (7 weeks old), read-out: LD₅₀
From the text: An acute toxicity test was run with ICR male mice (7 weeks old) by an oral administration.

[2] = aggregation caused by arachidonic acid (80 µM), rabbit PRP, read-out: 50%-Inhibition concentration, Arachidonic acid
[3] = aggregation caused by collagen (30 µg/ml), rabbit PRP, read-out: 50%-Inhibition concentration, Collagen

| Structure (SMILES) | ILS (%) (P388 cells; Dose 10 mg/kg/day) | ILS (%) (P388 cells; Dose 30 mg/kg/day) | ILS (%) (P388 cells; Dose 100 mg/kg/day) | IC50 (platelet aggregation; [2]) [µM] | IC50 (platelet aggregation; [3]) [µM] | ILS (%) (P388 cells; Dose 40 mg/kg/day) | survival days compared with control mice (in words) (P388 cells; Dose 100 mg/kg/day as stated in the text) | IC50 (platelet aggregation; read-out: 50%-Inhibition concentration, Arachidonic acid) [µM] | IC50 (platelet aggregation; read-out: 50%-Inhibition concentration, Collagen) [µM] | LD50 [1] [mg/kg] |
| --- | --- | --- | --- | --- | --- | --- | --- | --- | --- | --- |
| CC/C=C\C/C=C\C/C=C\CCCCCCCC(=O)OC(C)n1cc(F)c(=O)[nH]c1=O (stereo not drawn) [Example 1, 1-(α-9,12,15-octadecatrienoyloxy-α-methyl)-methyl-5-fluorouracil] | 24.6 | 46.8 | 80.5 | 65 | 340 |  |  |  |  |  |
| CC/C=C\C/C=C\C/C=C\CCCCCCCC(=O)OC(CC)n1cc(F)c(=O)[nH]c1=O (stereo not drawn) [Example 2, 1-(α-9,12,15-octadecatrienoyloxy-α-ethyl)methyl-5-fluorouracil] | 27.2 | 39.7 | 73.8 | 57 | 530 |  |  |  |  |  |
| CC/C=C\C/C=C\C/C=C\C/C=C\C/C=C\CCCC(=O)OC(C)n1cc(F)c(=O)[nH]c1=O (stereo not drawn) [Example 3, 1-(α-5,8,11,14,17-eicosapentaenoyloxy-α-methyl)methyl-5-fluorouracil] | 26.8 | 49.2 | 82.1 | 32 | 140 |  |  |  |  |  |
| O=c1[nH]cc(F)c(=O)[nH]1 [Example 5-FU, 5-Fluorouracil] | 65.2 | 27.4 |  |  |  | -24.8 | survival days shorter than those for control mice | > 1000 | > 1000 | 309 |
